Biological target: 5α-reductase
Experiment: Inhibitory activity on 5α-reductase in vitro (rat prostate enzyme, [4-C14]-testosterone conversion to dihydrotestosterone)
Type: biochemical
Settings: male rat prostate enzyme; [4-C14]-testosterone 1.5 n mol, NADPH; 60 mins at 37° C.; pH 7.4 buffer
Experimental: The test was carried out with reference to the method of J. Shimazaki et al [See Endocrinol, Japon., 18, 179 (1971).]
Male rat's prostate (4 g) was homogenized with its triple volume of 0.1M HEPES buffer (PH 7.4) including 0.25M cane sugar and was centrifuged at 3000 r.p.m. for 10 mins.
The precipitate was suspended into the buffer solution described above (10 ml), and the suspension was centrifuged at 3000 r.p.m for 5 mins. The resulting precipitated was suspended in the buffer solution (3 ml) described above and was used as a sauce of enzyme.
A reaction mixture (total volume 0.1 ml) of [4-C^14 ]-testosterone (1.5n mol, 1.5×10^5 cpm), NADPH (0.5 μmol), enzyme solution (0.03 ml) described above and several kinds of concentration of the compounds in the present invention was incubated for 60 mins at 37° C. Enzyme reaction was quenched by addition of a mixture (0.4 ml) of chloroform and methanol (1:2), and the mixture was centrifuged at 2000 r.p.m for 3 mins. The supernatant (50 μl) was spotted on silica gel thin layer plate. The spot on the plate was developed with a mixture of chloroform, methanol and acetic acid (99.2:0.6:0.2). Radioactivity of dihydrotestosteron generated on plate was measured by TLC scanner of radio-autography and inhibitory ratio was calculated.

SMILES | IC50 [nM]
C/C(=C\C(=O)Nc1ccccc1OCCCC(=O)O)c1ccc(CC(C)(C)C)cc1 [1 (b)] | 370
CCCCCOc1ccc(/C(C)=C/C(=O)Nc2ccccc2OCCCC(=O)O)c(F)c1 [1 (e), 4-[2-(2-fluoro-4-pentyloxy-β-methylcinnamoylamino)phenoxy]butanoic acid] | 280
CCCCCc1cccc(/C(C)=C/C(=O)Nc2ccccc2OCCCC(=O)O)c1 [1 (a), 4-[2-(3-pentyl-β-methylcinnamoylamino)phenoxy]butanoic acid] | 160
CCC(CC)Cc1ccc(/C(C)=C/C(=O)Nc2ccccc2OCCCC(=O)O)cc1 [1 (c), 4-[2-{4-(2-ethylbutyl)-β-methylcinnamoylamino}phenoxy]butanoic acid] | 300
CCCCSc1ccc(/C(C)=C/C(=O)Nc2ccccc2OCCCC(=O)O)cc1 [1 (f), 4-[2-(4-butylthio-β-methylcinnamoylamino)phenoxy]butanoic acid] | 430
CCCC(C)Cc1ccc(/C(C)=C/C(=O)Nc2ccccc2OCCCC(=O)O)cc1 (stereo not drawn) [1 (d), 4-[2-{4-(2-methylpentyl)-β-methylcinnamoylamino}phenoxy] butanoic acid] | 340
C/C(=C\C(=O)Nc1ccccc1OCCCC(=O)O)c1ccc(CC2CCC2)cc1 [1 (g), 4-[2-(4-cyclobutylmethyl-β-methylcinnamoylamino)phenoxy] butanoic acid] | 110
C/C(=C\C(=O)Nc1ccccc1OCCCC(=O)O)c1ccc(CC2CCCCC2)cc1 [1 (h), 4-[2-(4-cyclohexylmethyl-β-methylcinnamoylamino)phenoxy] butanoic acid] | 280
C/C(=C\c1ccc(CCc2ccccc2)cc1)C(=O)Nc1ccccc1OCCCC(=O)O [1 (l), 4-[2-(4-phenethyl-α-methylcinnamoylamino)phenoxy]butanoic acid] | 230
C/C(=C\C(=O)Nc1ccccc1OCCCC(=O)O)c1ccc(CCCCc2ccccc2)cc1 [1 (i), 4-[2-{4-(4-phenylbutyl)-β-methylcinnamoylamino)phenoxy] butanoic acid] | 320
CCCCCc1cccc(/C=C(\C)C(=O)Nc2ccccc2OCCCC(=O)O)c1 [1 (k), 4-[2-(3-pentyl-α-methylcinnamoylamino)phenoxy]butanoic acid] | 240
C/C(=C\C(=O)Nc1ccccc1OCCCC(=O)O)c1ccc(Oc2ccccc2)cc1 [1 (j), 4-[2-(4-phenoxy-β-methylcinnamoylamino)phenoxy]butanoic acid] | 250
CCCCCc1ccc(/C(C)=C/C(=O)Nc2ccccc2OCCCC(=O)O)cc1 [Example 1, 4-[2-(4-pentyl-β-methylcinnamoylamino)phenoxy]butanoic acid] | 200

From patent US5037852A, “Cinnamoylamide derivatives” (Ono Pharmaceutical Co., Ltd., priority 1987, dated 1991)
